Reference: ChEMBL document CHEMBL3045550, “Design, synthesis and biological activities of new strobilurin derivatives containing substituted pyrazoles” (2010)

What was measured:
Type in all cases: functional
[1] = test system: Pseudoperonospora cubensis; test: Antifungal activity against Pseudoperonospora cubensis infected cucumber leaves assessed as disease control at 6.25 mg/l after 5 days relative to control
[2] = test system: Blumeria graminis f. sp. tritici; test: Antifungal activity against Blumeria graminis f. sp. tritici infected seven-day-old wheat seedlings assessed as disease control at 400 mg/l after 7 days relative to control
[3] = test system: Blumeria graminis f. sp. tritici; test: Antifungal activity against Blumeria graminis f. sp. tritici infected seven-day-old wheat seedlings assessed as disease control at 12.5 mg/l after 7 days relative to control
[4] = test system: Tetranychus cinnabarinus; test: Acaricidal activity against Tetranychus cinnabarinus (carmine spider mite) in kidney bean plants assessed as mortality at 600 mg/l after 48 hr relative to control
[5] = test system: Pseudoperonospora cubensis; test: Antifungal activity against Pseudoperonospora cubensis infected cucumber leaves assessed as disease control at 3.12 mg/l after 5 days relative to control
[6] = test system: Pseudoperonospora cubensis; test: Antifungal activity against Pseudoperonospora cubensis infected cucumber leaves assessed as disease control at 400 mg/l after 5 days relative to control
[7] = test system: Pseudoperonospora cubensis; test: Antifungal activity against Pseudoperonospora cubensis infected cucumber leaves assessed as disease control at 25 mg/l after 5 days relative to control
[8] = test system: Pyricularia oryzae; test: Antifungal activity against Magnaporthe oryzae infected 12 day old rice plant assessed as disease control at 400 mg/l after 6 days relative to control
[9] = test system: Blumeria graminis f. sp. tritici; test: Antifungal activity against Blumeria graminis f. sp. tritici infected seven-day-old wheat seedlings assessed as disease control at 1.56 mg/l after 7 days relative to control
[10] = test system: Botrytis cinerea; test: Antifungal activity against Botryotinia fuckeliana infected cucumber leaves assessed as disease control at 400 mg/l after 4 days relative to control
[11] = test system: Tetranychus cinnabarinus; test: Acaricidal activity against Tetranychus cinnabarinus (carmine spider mite) in kidney bean plants assessed as mortality at 150 mg/l after 48 hr relative to control
[12] = test system: Tetranychus cinnabarinus; test: Acaricidal activity against Tetranychus cinnabarinus (carmine spider mite) in kidney bean plants assessed as mortality at 38 mg/l after 48 hr relative to control

Row | SMILES | Activity [1] [%] | Activity [2] [%] | Activity [3] [%] | Activity [4] [%] | Activity [5] [%] | Activity [6] [%] | Activity [7] [%] | Activity [8] [%] | Activity [9] [%] | Activity [10] [%] | Activity [11] [%] | Activity [12] [%]
1 | CO/C=C(/C(=O)OC)c1ccccc1COc1cc(-c2ccccc2OC)nn1C | 0 | 100 | 100 | 0 | 0 | 100 | 50 | 100 | 35 | 50 | – | –
2 | CO/C=C(/C(=O)OC)c1ccccc1COc1cc(-c2ccccc2Cl)nn1C | 0 | 100 | 100 | 100 | 0 | 100 | 100 | 0 | 40 | 0 | 0 | 0
3 | CO/C=C(/C(=O)OC)c1ccccc1COc1cc(-c2ccc(OCC(F)(F)F)cc2)nn1C | 0 | 60 | – | 0 | 0 | 100 | 90 | 0 | – | 0 | – | –
4 | CO/C=C(/C(=O)OC)c1ccccc1COc1cc(-c2ccc([N+](=O)[O-])cc2)nn1C | 70 | 100 | 100 | 0 | 50 | 100 | 100 | 99 | 95 | 0 | – | –
5 | CO/C=C(/C(=O)OC)c1ccccc1COc1cc(-c2ccc(-c3ccc(Cl)cc3)cc2)nn1C | 0 | 100 | 95 | 0 | 0 | 100 | 100 | 0 | 0 | 0 | – | –
6 | CO/C=C(/C(=O)OC)c1ccccc1COc1cc(-c2ccc(Oc3ccccc3)cc2)nn1C | 0 | 0 | – | 0 | 0 | 100 | 100 | 0 | – | 0 | – | –
7 | CO/C=C(/C(=O)OC)c1ccccc1COc1c(C)c(-c2ccccc2)nn1C | 60 | 100 | 100 | 100 | 40 | 100 | 100 | 0 | 55 | 0 | 0 | 0
8 | CO/C=C(/C(=O)OC)c1ccccc1Oc1cc(Oc2ccccc2C#N)ncn1 [AZOXYSTROBIN] | 95 | 100 | 100 | – | 100 | 100 | 100 | 100 | 60 | 100 | – | –
9 | CO/N=C(/C(=O)OC)c1ccccc1COc1ccccc1C [KRESOXIM-METHYL] | 0 | 100 | 100 | – | 0 | – | 35 | 100 | 100 | 100 | – | –
10 | CO/C=C(/C(=O)OC)c1ccccc1COc1c(C)c(-c2ccc(OCC(F)(F)F)cc2)nn1C [METHYL 2-(2-((1,4-DIMETHYL-3-(4-(2,2,2-TRIFLUOROETHOXY)PHENYL)-1H-PYRAZOL-5-YLOXY)METHYL)PHENYL)-3-METHOXYACRYLATE] | 0 | 100 | 100 | 60 | 0 | 100 | 40 | 100 | 65 | 100 | – | –
11 | CO/C=C(/C(=O)OC)c1ccccc1COc1c(C)c(-c2ccc(C)cc2)nn1C [METHYL 2-(2-((1,4-DIMETHYL-3-P-TOLYL-1H-PYRAZOL-5-YLOXY)METHYL)PHENYL)-3-METHOXYACRYLATE] | 75 | 100 | 100 | 100 | 40 | 100 | 100 | 0 | 45 | 0 | 0 | 0
12 | CO/C=C(/C(=O)OC)c1ccccc1COc1cc(-c2ccc(Cl)cc2Cl)nn1C [METHYL 2-(2-((3-(2,4-DICHLOROPHENYL)-1-METHYL-1H-PYRAZOL-5-YLOXY)METHYL)PHENYL)-3-METHOXYACRYLATE] | 45 | 100 | 100 | 0 | 20 | 100 | 100 | 0 | 0 | 0 | – | –
13 | CO/C=C(/C(=O)OC)c1ccccc1COc1cc(-c2ccc(C)cc2C)nn1C [METHYL 2-(2-((3-(2,4-DIMETHYLPHENYL)-1-METHYL-1H-PYRAZOL-5-YLOXY)METHYL)PHENYL)-3-METHOXYACRYLATE] | 70 | 100 | 100 | 100 | 20 | 100 | 100 | 100 | 80 | 50 | 0 | 0
14 | CO/C=C(/C(=O)OC)c1ccccc1COc1c(C)c(-c2ccc(Cl)cc2)nn1C [METHYL 2-(2-((3-(4-CHLOROPHENYL)-1,4-DIMETHYL-1H-PYRAZOL-5-YLOXY)METHYL)PHENYL)-3-METHOXYACRYLATE] | 0 | 100 | 100 | 60 | 0 | 95 | 0 | 0 | 100 | 0 | – | –
15 | CO/C=C(/C(=O)OC)c1ccccc1COc1cc(-c2ccc(F)cc2)nn1C [METHYL 2-(2-((3-(4-FLUOROPHENYL)-1-METHYL-1H-PYRAZOL-5-YLOXY)METHYL)PHENYL)-3-METHOXYACRYLATE] | 100 | 30 | – | 0 | 75 | 100 | 100 | 50 | – | 100 | – | –
16 | CO/C=C(/C(=O)OC)c1ccccc1COc1cc(-c2ccc(C(C)(C)C)cc2)nn1C [METHYL 2-(2-((3-(4-TERT-BUTYLPHENYL)-1-METHYL-1H-PYRAZOL-5-YLOXY)METHYL)PHENYL)-3-METHOXYACRYLATE] | – | 70 | – | 0 | – | 100 | 15 | 100 | – | 50 | – | –
17 | CO/C=C(/C(=O)OC)c1ccccc1COc1cc(-c2ccc(SC)cc2)nn1C [METHYL 3-METHOXY-2-(2-((1-METHYL-3-(4-(METHYLTHIO)PHENYL)-1H-PYRAZOL-5-YLOXY)METHYL)PHENYL)ACRYLATE] | 35 | 0 | – | 0 | 0 | 100 | 100 | 90 | – | 0 | – | –
18 | CO/C=C(/C(=O)OC)c1ccccc1COc1cc(-c2ccc(C)cc2)nn1C [METHYL 3-METHOXY-2-(2-((1-METHYL-3-P-TOLYL-1H-PYRAZOL-5-YLOXY)METHYL)PHENYL)ACRYLATE] | 0 | 100 | 35 | 0 | 0 | 100 | 0 | 0 | 0 | 0 | – | –
19 | CO/C=C(/C(=O)OC)c1ccccc1COc1cc(-c2ccccc2)nn1C [METHYL 3-METHOXY-2-(2-((1-METHYL-3-PHENYL-1H-PYRAZOL-5-YLOXY)METHYL)PHENYL)ACRYLATE] | 0 | 100 | 0 | 0 | 0 | 100 | 0 | 0 | 0 | 0 | – | –
20 | CO/C=C(/C(=O)OC)c1ccccc1COc1cc(-c2ccc(OC)cc2)nn1C [METHYL 3-METHOXY-2-(2-((3-(4-METHOXYPHENYL)-1-METHYL-1H-PYRAZOL-5-YLOXY)METHYL)PHENYL)ACRYLATE] | 15 | 100 | 65 | 0 | 0 | 95 | 90 | 100 | 0 | 50 | – | –
